# From publication PMC5384962, “First-in-human studies of seletalisib, an orally bioavailable small-molecule PI3Kδ inhibitor for the treatment of immune and inflammatory diseases” (European Journal of Clinical Pharmacology, 2017)
# Like-named read-outs stand apart in the source and are kept apart here.
# What was measured:
# [1] = Study-1 Part-B multiple ascending dose pharmacokinetics (plasma and urine); assay type: in vivo, human; conditions: for Fe(0–24) / CLss/F / Cmaxss / Ctrough / Vzss/F / AUC(0-t) / Tmax / Cmax / half-life / CL renal / Ae(0–24): Study-1 Part-B; for Fe(0–24) / CLss/F / Cmaxss / Ctrough / Vzss/F / AUC(0-t) / Cmax / half-life / CL renal / Ae(0–24): geo mean (GeoCV%); for AUC(0-t) / Tmax / Cmax / half-life / CL renal: human, oral; for AUC(0-t) / Tmax / Cmax / half-life: plasma; for AUC(0-t): read-out: AUC(0–24); for CL renal: urine and plasma; for Ae(0–24): urine
# Excerpt: These were phase I, randomised, double-blind, placebo-controlled studies designed to evaluate the safety, tolerability, PK and PD profiles of seletalisib following oral administration of single ascending doses and multiple ascending doses. Study-1 was a first-in-human, double-blind (sponsor-, investigator- and subject-blind) study that had two parts: Part-A evaluated seletalisib (single ascending doses) in healthy adults (including evaluation of food effects; Table 1); Part-B evaluated seletalisib (multiple ascending doses) in healthy adults and subjects with mild-to-moderate psoriasis. Study-2 was also a double-blind study of seletalisib (single and multiple ascending doses) in healthy subjects, which investigated higher doses.
# Plasma concentrations of seletalisib were measured by high-performance liquid chromatography with tandem mass spectrometry (see Online Resource S1 for further details). The following PK parameters were determined in each study: AUC for seletalisib, maximum observed plasma concentration of seletalisib after a single dose (Cmax) and at steady-state (Cmaxss), time of occurrence of Cmax (tmax, obtained directly from the observed plasma concentration-time curves), minimum observed plasma concentration of seletalisib at steady-state immediately before the next dose would be administered (Ctrough), apparent terminal half-life, apparent volume of distribution after single dosing (Vz/F) and at steady-state (Vzss/F) and apparent total body clearance after single dosing (CL/F) and at steady-state (CLss/F). Accumulation factor based on AUC(0–24) [R(AUC)] and accumulation factor based on Cmax [R(Cmax)] were determined on multiple dose day 14. The following study-specific PK parameters were also determined: Study-1, total amount of seletalisib excreted in urine (Ae), renal clearance (CLr) and fraction of drug excreted in urine; Study-2, AUC(0–10) in BID dose groups, terminal elimination rate constant in plasma (λz), mean residence time (MRT) and linearity factor (LF [AUC(0–24)ss/AUC]).
# Methods for the calculation of seletalisib PK parameters are detailed in Online Resource S1.
# Seletalisib PK parameters were calculated via non-compartmental analysis methods from the individual concentration-time data using Phoenix WinNonlin version 6.2 (Certara, Princeton, NJ, USA). Urine (Study-1 only) and plasma PK parameters of seletalisib were reported for each subject and summarised by study part and dose group. Geometric mean and percentage geometric coefficient of variation (GeoCV%) were reported for all parameters except for tmax, which was reported using median and range. Dose proportionality for AUC and Cmax at Day_1 (Study-1 [Part-A & Part-B]; Study-2, single ascending dose-Day_1) and at steady state at Day_14 (Study-1 [Part-B]; Study-2, multiple ascending dose-Day_14) was examined via the power model and reported graphically. In Study-1, an assessment of food effect (fed versus fasted) was made for Cmax and AUC from the data for subjects who received the same dose in fed and fasted states in Part-A.
# [2] = Study-1 Part-B safety/tolerability (adverse events, laboratory, OGTT), multiple doses; conditions: for Deaths: Study-1 multiple doses
# Experimental: In Study-1 (Part-B), a total of 27 subjects were enrolled, two cohorts of healthy subjects (n = 9 in each) and one cohort of subjects with mild-to-moderate psoriasis (n = 9). Subjects were randomised (2:1) to ascending multiple doses of seletalisib (5, 8 and 15 mg) or placebo for 14 days.
# Adverse events (AEs), serious AEs (SAEs), routine clinical laboratory parameters, vital signs and ECGs were monitored throughout the study periods and for ≤7 days post-administration of final-dose of seletalisib/placebo. The potential for seletalisib to cause gastrointestinal (GI) tract adverse effects was assessed by careful monitoring of subject reports of AEs such as abdominal pain, bloating, nausea, vomiting and alteration of bowel function (e.g. diarrhoea, constipation or bleeding). A formal safety review was conducted before each dose escalation. In Study-1 (Part-B), the potential for seletalisib to interfere with insulin signalling was assessed by monitoring blood glucose and C-peptide levels as part of the standard laboratory tests and by performance of oral glucose tolerance tests, measuring glucose and C-peptide levels, pre-dose and during exposure in all cohorts.
# In each study, the primary population for analysis was the full analysis set (FAS), which comprised all subjects who had received ≥1 dose of seletalisib or placebo. PK analysis was performed on the PK per-protocol set (PK-PPS), which was a subset of the FAS consisting of subjects with no important protocol deviations likely to affect PK variables who received seletalisib; subjects who received placebo were excluded from this analysis. In Study-1 and Study-2, sample sizes of 57 and 36 subjects, respectively, were considered sufficient to permit assessment of the safety and tolerability of seletalisib and were not based on statistical considerations of power and sample size. In Study-1 (Part-A), a panel size of 15 subjects was selected to achieve good estimates of the PK/PD parameters.
# [3] = power model, Study-1 Part B Day 14
smiles,measurement,setting,value
"[O-][n+]1cccc(-c2nc3c(Cl)cccc3cc2[C@@H](Nc2ncnc3cccnc23)C(F)(F)F)c1 [Seletalisib, seletalisib]",geometric mean fraction of drug excreted in urine,"[1]; Study-1 Part-A and Part-B, parent drug, across dose groups",≤ 12%
same,Fe(0–24),"[1]; 5 mg, Day 1",4.02 (32.2) %
same,CLss/F,"[1]; 5 mg, Day 14",1.97 (36.2) L/h
same,Cmaxss,"[1]; 5 mg, Day 14",175 (29.1) ng/mL
same,Ctrough,"[1]; 5 mg, Day 14",66.5 (47.3) ng/mL
same,Fe(0–24),"[1]; 5 mg, Day 14",6.80 (40.0) %
same,Vzss/F,"[1]; 5 mg, Day 14",62.5 (20.0) L
same,Fe(0–24),"[1]; 8 mg, Day 1",4.24 (51.9) %
same,CLss/F,"[1]; 8 mg, Day 14",1.83 (50.2) L/h
same,Cmaxss,"[1]; 8 mg, Day 14",285 (41.7) ng/mL
same,Ctrough,"[1]; 8 mg, Day 14",113 (67.8) ng/mL
same,Fe(0–24),"[1]; 8 mg, Day 14",7.60 (26.3) %
same,Vzss/F,"[1]; 8 mg, Day 14",60.3 (40.1) L
same,Fe(0–24),"[1]; 15 mg, Day 1",5.42 (48.2) %
same,CLss/F,"[1]; 15 mg, Day 14",2.75 (29.9) L/h
same,Cmaxss,"[1]; 15 mg, Day 14",414 (23.0) ng/mL
same,Ctrough,"[1]; 15 mg, Day 14",140 (35.0) ng/mL
same,Fe(0–24),"[1]; 15 mg, Day 14",12.0 (52.8) %
same,Vzss/F,"[1]; 15 mg, Day 14",89.0 (24.9) L
same,AUC(0-t),"[1]; 5 mg, 5 mg, Day 1",1560 ng·h/mL
same,Tmax,"[1]; 5 mg, 5 mg, Day 1, median (range), read-out: tmax",4.01 h
same,AUC(0-t),"[1]; 5 mg, 5 mg, Day 14",2540 ng·h/mL
same,Tmax,"[1]; 5 mg, 5 mg, Day 14, median (range), read-out: tmax",3 h
same,AUC(0-t),"[1]; 8 mg, 8 mg, Day 1",2610 ng·h/mL
same,Tmax,"[1]; 8 mg, 8 mg, Day 1, median (range), read-out: tmax",4 h
same,AUC(0-t),"[1]; 8 mg, 8 mg, Day 14",4370 ng·h/mL
same,Tmax,"[1]; 8 mg, 8 mg, Day 14, median (range), read-out: tmax",3.5 h
same,AUC(0-t),"[1]; 15 mg, 15 mg, Day 1",3940 ng·h/mL
same,Tmax,"[1]; 15 mg, 15 mg, Day 1, median (range), read-out: tmax",3.01 h
same,AUC(0-t),"[1]; 15 mg, 15 mg, Day 14",5460 ng·h/mL
same,Tmax,"[1]; 15 mg, 15 mg, Day 14, median (range), read-out: tmax",3 h
same,Tmax,"[1]; day 1, fed, range across groups, read-out: time to peak plasma concentration",3.01 to 4.01 h
same,Tmax,"[1]; day 14, fed, range across groups, read-out: time to peak plasma concentration",3 to 3.5 h
same,Cmax,"[1]; 5 mg, Day 1",122 ng/mL
same,half-life,"[1]; 5 mg, Day 14",22 h
same,Cmax,"[1]; 8 mg, Day 1",201 ng/mL
same,half-life,"[1]; 8 mg, Day 14",22.8 h
same,Cmax,"[1]; 15 mg, Day 1",322 ng/mL
same,half-life,"[1]; 15 mg, Day 14",22.5 h
same,CL renal,"[1]; 5 mg, 5 mg, Day 1",2.15 mL/min
same,CL renal,"[1]; 5 mg, 5 mg, Day 14",2.23 mL/min
same,CL renal,"[1]; 8 mg, 8 mg, Day 1",2.17 mL/min
same,CL renal,"[1]; 8 mg, 8 mg, Day 14",2.32 mL/min
same,CL renal,"[1]; 15 mg, 15 mg, Day 1",3.43 mL/min
same,CL renal,"[1]; 15 mg, 15 mg, Day 14",5.48 mL/min
same,"Dose proportionality of Cmaxss (ng/mL): Dose (beta), Estimate",[1]; [3],0.78
same,"Dose proportionality of Cmaxss (ng/mL): Intercept, Estimate",[1]; [3],3.95
same,Ae(0–24),"[1]; 5 mg, Day 1",0.201 (32.2) mg
same,Ae(0–24),"[1]; 5 mg, Day 14",0.340 (40.0) mg
same,Ae(0–24),"[1]; 8 mg, Day 1",0.340 (51.9) mg
same,Ae(0–24),"[1]; 8 mg, Day 14",0.608 (26.3) mg
same,Ae(0–24),"[1]; 15 mg, Day 1",0.812 (48.2) mg
same,Ae(0–24),"[1]; 15 mg, Day 14",1.80 (52.8) mg
same,Deaths,"[2]; 5 mg, 14 days",0 n (%)
same,Deaths,"[2]; 8 mg, 14 days",0 n (%)
same,Deaths,"[2]; 15 mg, 14 days (psoriasis cohort)",0 n (%)
same,Deaths,[2]; seletalisib total,0 n (%)
same,glucose handling versus baseline (oral glucose tolerance test),[2]; in vivo,no significant alteration
same,neutrophil counts,[2]; in vivo,Modest reductions
same,number of AEs of potential GI disturbance,[2]; in vivo,Six
same,number of moderate AEs,[2]; in vivo,three
